Experimental findings from ChEMBL document CHEMBL1145651, “A constituent of Pterocarpus marsupium, (-)-epicatechin, as a potential antidiabetic agent” (1983) are described below.

Assay type in all cases: functional
Holding throughout (details): route intraperitoneal

Assay [1] relates to Rattus norvegicus. Kind of assay: Antihyperglycemic activity in Wistar rat assessed as decrease in alloxan-induced blood glucose level at 30 mg/kg, ip administered 72 hrs after alloxan challenge.
Assay [2] relates to Rattus norvegicus. Kind of assay: Antihyperglycemic activity in Wistar rat assessed as decrease in alloxan-induced blood glucose level at 30 mg/kg, ip administered 72 to 288 hrs after alloxan challenge.
Assay [3] relates to Rattus norvegicus. Kind of assay: Antihyperglycemic activity in Wistar rat assessed as decrease in alloxan-induced blood glucose level at 30 mg/kg, ip administered 168 hrs after alloxan challenge.
Assay [4] relates to Rattus norvegicus. Kind of assay: Antihyperglycemic activity in Wistar rat assessed as decrease in alloxan-induced blood glucose level at 30 mg/kg, ip administered 120 hrs after alloxan challenge.
The subject of assay [5] is Rattus norvegicus. Kind of assay: Antihyperglycemic activity in Wistar rat assessed as decrease in alloxan-induced blood glucose level at 30 mg/kg, ip administered 288 hrs after alloxan challenge.
Assay [6] relates to Rattus norvegicus. Kind of assay: Antihyperglycemic activity in Wistar rat assessed as decrease in alloxan-induced blood glucose level at 30 mg/kg, ip pretreated 24 hrs before alloxan challenge.

Take `Oc1cc(O)c2c(c1)O[C@H](c1ccc(O)c(O)c1)[C@H](O)C2` [(-)-EPICATECHIN]: the Activity is 138 mg/dL with Rattus norvegicus [1]; 129 mg/dL with Rattus norvegicus [2]; 128 mg/dL with Rattus norvegicus [3]; 120 mg/dL with Rattus norvegicus [4]; 117 mg/dL with Rattus norvegicus [5]; 111 mg/dL in the assay on Rattus norvegicus [6].
